Assay results taken from PubChem BioAssay (NCI).
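In this assay, cells in 96-well plates receive the compound at five concentrations for 48 hours. Endpoints are linearly interpolated between the surrounding concentrations. Abbreviation: GI50, concentration required for 50% inhibition of growth. TGI denotes the concentration required for complete inhibition of growth.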

Assays:
Experiment in all cases: growth of human tumour cells (NCI), 48 h
COLO 205 colon = system: COLO 205 colon
OVCAR-3 ovarian = system: OVCAR-3 ovarian
MALME-3M melanoma = system: MALME-3M melanoma
SR leukemia = system: SR leukemia
MOLT-4 leukemia = system: MOLT-4 leukemia
A498 renal = system: A498 renal
UO-31 renal = system: UO-31 renal
HCC-2998 colon = system: HCC-2998 colon
U251 CNS = system: U251 CNS
DU-145 prostate = system: DU-145 prostate
RPMI-8226 leukemia = system: RPMI-8226 leukemia
SK-MEL-2 melanoma = system: SK-MEL-2 melanoma
SK-MEL-5 melanoma = system: SK-MEL-5 melanoma
A549 NSCLC = system: A549 NSCLC
OVCAR-4 ovarian = system: OVCAR-4 ovarian
M14 melanoma = system: M14 melanoma
K-562 leukemia = system: K-562 leukemia
HOP-62 NSCLC = system: HOP-62 NSCLC
SF-539 CNS = system: SF-539 CNS
NCI/ADR-RES ovarian = system: NCI/ADR-RES ovarian
SF-295 CNS = system: SF-295 CNS
BT-549 breast = system: BT-549 breast
SW-620 colon = system: SW-620 colon
MCF7 breast = system: MCF7 breast
MDA-MB-435 = system: MDA-MB-435
IGROV1 ovarian = system: IGROV1 ovarian
MDA-MB-231 breast = system: MDA-MB-231 breast
EKVX NSCLC = system: EKVX NSCLC
T-47D breast = system: T-47D breast
HCT-15 colon = system: HCT-15 colon
CCRF-CEM leukemia = system: CCRF-CEM leukemia
RXF 393 renal = system: RXF 393 renal
SNB-19 CNS = system: SNB-19 CNS
CAKI-1 renal = system: CAKI-1 renal
UACC-257 melanoma = system: UACC-257 melanoma
OVCAR-8 ovarian = system: OVCAR-8 ovarian
NCI-H226 lung = system: NCI-H226 lung
TK-10 renal = system: TK-10 renal
SN12C renal = system: SN12C renal
SK-OV-3 ovarian = system: SK-OV-3 ovarian
KM12 colon = system: KM12 colon
PC-3 prostate = system: PC-3 prostate
UACC-62 melanoma = system: UACC-62 melanoma
HS 578T breast = system: HS 578T breast
NCI-H522 lung = system: NCI-H522 lung
NCI-H23 lung = system: NCI-H23 lung
ACHN renal = system: ACHN renal
SK-MEL-28 melanoma = system: SK-MEL-28 melanoma
HT29 colon = system: HT29 colon
SF-268 CNS = system: SF-268 CNS
786-0 renal = system: 786-0 renal
OVCAR-5 ovarian = system: OVCAR-5 ovarian
NCI-H460 lung = system: NCI-H460 lung
SNB-75 CNS = system: SNB-75 CNS

COc1cc2c(cc1OCc1ccccc1)N=C[C@@H]1C[C@@H](F)CN1C2=O was tested, and the GI50 (COLO 205 colon) was 583 nM, the TGI (COLO 205 colon) was 9640 nM and the GI50 (OVCAR-3 ovarian) was 315 nM. The TGI (OVCAR-3 ovarian) was 787 nM, the GI50 (MALME-3M melanoma) was 1580 nM and the TGI (MALME-3M melanoma) was 3130 nM. It also gave a GI50 (SR leukemia) of 290 nM, a TGI (SR leukemia) of 1460 nM and a GI50 (MOLT-4 leukemia) of 353 nM. The TGI (MOLT-4 leukemia) was > 100000 nM, the GI50 (A498 renal) was 1500 nM and the TGI (A498 renal) was 3480 nM. It also gave a TGI (UO-31 renal) of 483 nM, a GI50 (HCC-2998 colon) of 496 nM and a TGI (HCC-2998 colon) of 3020 nM. For the same compound, the GI50 (U251 CNS) was 154 nM, the TGI (U251 CNS) was 400 nM and the GI50 (DU-145 prostate) was 144 nM. For the same compound, the TGI (DU-145 prostate) was 1660 nM, the GI50 (RPMI-8226 leukemia) was < 50.1 nM and the GI50 (SK-MEL-2 melanoma) was 279 nM. The GI50 (SK-MEL-5 melanoma) was 156 nM, the TGI (SK-MEL-5 melanoma) was 356 nM and the GI50 (A549 NSCLC) was 829 nM. For the same compound, the TGI (A549 NSCLC) was 6980 nM, the GI50 (OVCAR-4 ovarian) was 2310 nM and the TGI (OVCAR-4 ovarian) was 27400 nM. The GI50 (M14 melanoma) was 158 nM, the TGI (M14 melanoma) was 402 nM and the GI50 (K-562 leukemia) was 500 nM. The TGI (K-562 leukemia) was > 100000 nM, the GI50 (HOP-62 NSCLC) was 236 nM and the TGI (HOP-62 NSCLC) was 2700 nM. It also gave a GI50 (SF-539 CNS) of 1520 nM, a TGI (SF-539 CNS) of 4680 nM and a GI50 (NCI/ADR-RES ovarian) of 265 nM. The TGI (NCI/ADR-RES ovarian) was 1090 nM, the GI50 (SF-295 CNS) was 678 nM and the TGI (SF-295 CNS) was 1850 nM. It also gave a TGI (BT-549 breast) of 785 nM, a TGI (SW-620 colon) of 1210 nM and a GI50 (MCF7 breast) of 275 nM. The TGI (MCF7 breast) was 2320 nM, the GI50 (MDA-MB-435) was 857 nM and the TGI (MDA-MB-435) was 2390 nM. For the same compound, the TGI (IGROV1 ovarian) was 411 nM, the GI50 (MDA-MB-231 breast) was 232 nM and the TGI (MDA-MB-231 breast) was 553 nM. For the same compound, the GI50 (EKVX NSCLC) was 730 nM, the TGI (EKVX NSCLC) was 2290 nM and the GI50 (T-47D breast) was 577 nM. The TGI (T-47D breast) was 18700 nM, the GI50 (HCT-15 colon) was 282 nM and the TGI (HCT-15 colon) was 893 nM. It also gave a GI50 (CCRF-CEM leukemia) of 355 nM, a TGI (CCRF-CEM leukemia) of 1590 nM and a GI50 (RXF 393 renal) of 217 nM. For the same compound, the TGI (RXF 393 renal) was 511 nM, the GI50 (SNB-19 CNS) was 596 nM and the TGI (SNB-19 CNS) was 18200 nM. It also gave a GI50 (CAKI-1 renal) of 6690 nM, a TGI (CAKI-1 renal) of 26100 nM and a GI50 (UACC-257 melanoma) of 569 nM. For the same compound, the TGI (UACC-257 melanoma) was 3000 nM, the GI50 (OVCAR-8 ovarian) was 565 nM and the TGI (OVCAR-8 ovarian) was 5890 nM. It also gave a GI50 (NCI-H226 lung) of 197 nM, a TGI (NCI-H226 lung) of 447 nM and a GI50 (TK-10 renal) of 1490 nM. For the same compound, the TGI (TK-10 renal) was 4520 nM, the GI50 (SN12C renal) was 273 nM and the TGI (SN12C renal) was 3400 nM. The GI50 (SK-OV-3 ovarian) was 2810 nM, the TGI (SK-OV-3 ovarian) was 45800 nM and the GI50 (KM12 colon) was 1550 nM. For the same compound, the TGI (KM12 colon) was 4050 nM, the TGI (PC-3 prostate) was 1020 nM and the GI50 (UACC-62 melanoma) was 183 nM. It also gave a TGI (UACC-62 melanoma) of 369 nM, a TGI (HS 578T breast) of 503 nM and a TGI (NCI-H522 lung) of 187 nM. The GI50 (NCI-H23 lung) was 195 nM, the TGI (NCI-H23 lung) was 572 nM and the GI50 (ACHN renal) was 242 nM. The TGI (ACHN renal) was 669 nM, the GI50 (SK-MEL-28 melanoma) was 748 nM and the TGI (SK-MEL-28 melanoma) was 13700 nM. The GI50 (HT29 colon) was 322 nM, the TGI (HT29 colon) was > 42800 nM and the GI50 (SF-268 CNS) was 184 nM. For the same compound, the TGI (SF-268 CNS) was 1000 nM, the GI50 (786-0 renal) was 189 nM and the TGI (786-0 renal) was 661 nM. It also gave a GI50 (OVCAR-5 ovarian) of 298 nM, a TGI (OVCAR-5 ovarian) of 12100 nM and a GI50 (NCI-H460 lung) of 1920 nM. The TGI (NCI-H460 lung) was 7130 nM, the GI50 (SNB-75 CNS) was 894 nM and the TGI (SNB-75 CNS) was > 100000 nM.
